Consider one compound from PubChem BioAssay AID504754 (National Center for Advancing Translational Sciences (NCATS), 2011).

Usually half-life stands for the time needed for the level to fall by half in the phase considered.

For this data set, the system named is mouse liver microsomes, LC-MS/MS half-life. As to the kind of experiment: Inhibitors of Cruzain: Metabolic Stability Theory. The following applies: at 1 µM; hits give high values. An excerpt: Chagas Disease is a neglected tropical disease that affects over 16 million people in Latin America. The cysteine protease cruzain is essential for the survival Trypanosoma cruzi, the parasitic agent responsible for Chagas disease. Potential intervention for T. cruzi includes the inhibition of cruzain. This bioassay will summarize the ongoing development of small molecule cruzain inhbitiors. Currently, a screen of ~200k compounds and through extensive follow-up work a probe was identified. To further characterize the probe, it was tested in in vitro ADME assays. Mouse liver microsomes are created through broken up endoplasmic reticulum from mouse liver. These liver microsomes contain many drug metabolizing enzymes, such as Cytochome P-450s and flavin-containing monooxygenases. Because metabolism is major way of drug clearance, this is an important result. NIH Chemical Genomics Center [NCGC] NIH Molecular Libraries Probe Production Centers Network [MLPCN] MLSCN Grant: DA024891-01 PI Name: Dr. Brian Shoichet; University of California, San Francisco
1uM of compound in incubated in mouse liver microsome; the reference compound is ketanserin. Compounds are incubated at 37 degrees C for different time periods: 0, 5, 15, 30, 45, and 60 minutes. Samples are analyzed with LC-MS/MS.

Regarding `Cc1ccc(OCCn2c(CCNC(=O)C3CCCCC3)nc3ccccc32)cc1`, the half-life is 8 min.
